Measured values from patent publication US9849101B2, “Method for enhancing amidohydrolase activity of fatty acid amide hydrolase” (Research Foundation of the City University of New York, priority 2013, dated 2017).
pIC50: −log10 of the molar value. Each block holds one compound with its values, some of them ahead of it.

Key:
rat E18 cortical neurons = test: Viability of cultured primary neurons (calcein fluorescence), tBHP oxidative stress; type: cell-based
Experimental: Commercially obtained Sprague/Dawley rat E18 cortical tissue was allowed to settle for 5-10 minutes at room temperature, the shipping media was removed (reserved at 37° C.), and the tissue was enzymatically treated with NeuroPapain dissolved in NeuroPrep Medium (2 mg/ml, 2.5 ml) for 28 minutes at 37° C. with gentle swirling every 7 minutes. Treated tissue was centrifuged for 1.5 minutes at 200×g and the cells were dissociated by gentle trituration in 1 ml of the reserved shipping medium. Cells were collected by centrifugation as above and re-suspended by gentle trituration in 1 ml of NeuroPure plating medium. Viable cells were counted, (Nexcelom Auto T4; Nexcelom Bioscience LLC. Lawrence, Mass.) re-suspended in 9 ml of NeuroPure plating medium plus enough Neurobasal medium (supplemented with B27; GlutaMAX I, 2 mM; Penicillin, 50 U/ml; Streptomycin, 50 μg/ml) to achieve a density of 250,000 cells/ml, and seeded in BD PureCoat™ black-walled amine-coated 96-well plates in a 100 μl volume. […]
Oxidative stress was induced by the addition of concentrated tert-butyl hydrogen peroxide (tBHP) to achieve a final concentration of 7.5 μM. […] For each condition, six replicate wells were measured and the mean value was used for statistical analyses. Data was analyzed and plotted using Prism 5.0 (GraphPad Software Inc., La Jolla, Calif.). […]

rat brain FAAH = molecular target: T1, rat brain FAAH (Rattus norvegicus, UniProt P97612); settings: reported value; read-out: IC50 for anandamide hydrolysis; cited from earlier work
T1 construct: host or cells: rat brain
T1 sequence (P97612 1-579): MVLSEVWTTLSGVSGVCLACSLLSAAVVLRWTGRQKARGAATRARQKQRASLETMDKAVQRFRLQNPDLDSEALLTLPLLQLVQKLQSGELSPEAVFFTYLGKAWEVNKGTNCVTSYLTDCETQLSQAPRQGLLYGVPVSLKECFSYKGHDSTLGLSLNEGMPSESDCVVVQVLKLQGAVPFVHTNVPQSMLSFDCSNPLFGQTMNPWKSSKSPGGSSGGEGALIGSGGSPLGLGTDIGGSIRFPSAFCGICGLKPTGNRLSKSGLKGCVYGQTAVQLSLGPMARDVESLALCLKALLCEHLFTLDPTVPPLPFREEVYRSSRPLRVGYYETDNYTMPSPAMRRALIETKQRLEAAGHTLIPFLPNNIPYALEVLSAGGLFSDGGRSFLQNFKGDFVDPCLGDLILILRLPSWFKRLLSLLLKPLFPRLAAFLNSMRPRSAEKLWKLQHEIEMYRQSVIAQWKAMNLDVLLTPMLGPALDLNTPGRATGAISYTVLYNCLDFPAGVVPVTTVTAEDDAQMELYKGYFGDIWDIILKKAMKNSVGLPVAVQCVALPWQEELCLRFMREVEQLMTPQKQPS

rat FAAH [1] = molecular target: T2, rat FAAH (Rattus norvegicus, UniProt P97612); test: Ethanolamine inhibition assay, rat FAAH; type: biochemical
T2 construct: made in house; host or cells: E. coli TOP10
T2 sequence (P97612 1-579): T1 sequence (P97612 1-579)

At-FAAH = molecular target: T3, At-FAAH (Arabidopsis thaliana, UniProt Q7XJJ7); test: Ethanolamine inhibition assay, At-FAAH; type: biochemical
T3 construct: made in house; host or cells: E. coli TOP10
T3 sequence (Q7XJJ7 1-607): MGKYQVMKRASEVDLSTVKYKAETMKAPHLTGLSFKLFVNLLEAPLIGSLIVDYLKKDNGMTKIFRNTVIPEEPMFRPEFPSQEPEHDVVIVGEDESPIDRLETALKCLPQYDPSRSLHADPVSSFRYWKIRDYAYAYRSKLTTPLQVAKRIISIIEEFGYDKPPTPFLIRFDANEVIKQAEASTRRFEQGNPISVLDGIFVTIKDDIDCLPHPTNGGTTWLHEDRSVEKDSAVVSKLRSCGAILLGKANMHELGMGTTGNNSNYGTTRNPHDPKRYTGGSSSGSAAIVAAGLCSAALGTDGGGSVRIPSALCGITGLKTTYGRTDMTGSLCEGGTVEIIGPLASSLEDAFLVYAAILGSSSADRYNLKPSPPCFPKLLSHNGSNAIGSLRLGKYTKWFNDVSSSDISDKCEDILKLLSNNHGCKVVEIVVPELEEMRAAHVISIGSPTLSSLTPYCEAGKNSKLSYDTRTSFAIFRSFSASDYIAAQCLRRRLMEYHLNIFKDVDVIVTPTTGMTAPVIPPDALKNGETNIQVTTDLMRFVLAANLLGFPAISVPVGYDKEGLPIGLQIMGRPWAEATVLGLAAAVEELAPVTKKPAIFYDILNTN

[2] = molecular target: T4, Arabidopsis thaliana FAAH (AT-FAAH) (Arabidopsis thaliana, UniProt Q7XJJ7); test: NAE amidohydrolase assay on purified recombinant At-FAAH; type: biochemical
T4 construct: made in house; host or cells: E. coli TOP10
T4 sequence (Q7XJJ7 1-607): T3 sequence (Q7XJJ7 1-607)

rat FAAH [3] = molecular target: T2, rat FAAH; test: NAE amidohydrolase assay on purified recombinant rat FAAH; type: biochemical
[4] = system: Arabidopsis thaliana wild type (Col-0) seedlings; test: Arabidopsis seedling growth (cotyledon size, primary root elongation); type: in vivo
[5] = molecular target: T5, NAE amidohydrolase activity from crude seedling extracts (Arabidopsis thaliana, UniProt Q7XJJ7); test: Plant amidohydrolase assay on crude seedling protein extract; type: biochemical; settings: [1-14C]-NAE 12:0, 11-d-old seedlings, 2 hours
T5 construct: from tissue; host or cells: 11-day-old Arabidopsis thaliana Col-0 seedlings, total solubilized protein
T5 sequence (Q7XJJ7 1-607): T3 sequence (Q7XJJ7 1-607)

[6] = 2 μg protein, 100 μM-300 μM substrate, TLC
[7] = 100 μM [1-14C]-NAE 12:0 with 100 μM compound
[8] = 100 μM compound, up to 10 mM ethanolamine, 100 μM [1-14C]-NAE 12:0

Compound: CCCCCCCCCCCCCCCC(=O)NCCO [NAE 16:0, N-palmitoylethanolamine]
reversal of cardanol-induced exacerbation of tBHP mediated cell death (rat E18 cortical neurons; 1 hour prior to addition of 1 nM cardanol-EA): dose-dependent reversal | pIC50 (rat brain FAAH): 5.29

NAE hydrolase activity at increasing ethanolamine concentrations (rat FAAH [1]; 0-100 mM ethanolamine): dose-dependent reduction | NAE hydrolase activity at increasing ethanolamine concentrations (At-FAAH; 0-100 mM ethanolamine): dose-dependent reduction
Compound: NCCO [ethanolamine]

apparent Vmax [2]: increased | hydrolysis of the compound as substrate to acid form and ethanolamine [2, 6]: not suitable substrates | amidohydrolase activity toward NAE [2, 7]: increased | increase of activity by a factor ([2]; 100 μM compound, different [1-14C]-NAEs): about 4±1.2 | Km app versus solvent control ([2]; NAE 12:0 substrate, 100 μM compound, T-test confidence level 95%): No statistical difference | non-enzymatic hydrolysis of NAE to free fatty acid ([2]; heat-denaturated enzyme, 100 μM compound): no activity | apparent Vmax (rat FAAH [3]): increased | hydrolysis of the compound as substrate to acid form and ethanolamine (rat FAAH [3]; [6]): not suitable substrates | amidohydrolase activity toward NAE (rat FAAH [3]; [7]): increased | increase of activity by a factor (rat FAAH [3]; 100 μM compound, NAE 16:0 and NAE 12:0): about 5±2.2 | Kcat versus solvent control (rat FAAH [3]; NAE 20:4 substrate, 100 μM compound): increase in Kcat | NAE amidohydrolase activity of crude seedling extracts [5]: enhancement
Compound: CCCCCCCCCCCCCCCc1cccc(OCC(=O)NCCO)c1 [PDP-EA, N-(2-hydroxyethyl)-2-(3-pentadecylphenoxy)acetamide]
reversal of negative seedling growth effects of exogenous NAE 12:0 ([4]; 30 μM NAE 12:0, 20 μM compound, 11 days): reverse partially | seedling growth (cotyledon size), compound alone ([4]; compound alone, 11 days): positive impact on seedling growth | reversal of negative effects of NAE 12:0 on cotyledon size ([4]; with NAE 12:0, 11 days): partially reversed | protection from ethanolamine product inhibition (rat FAAH [1]; [8]): relieved this ethanolamine inhibition almost completely | protection from ethanolamine product inhibition (At-FAAH; [8]): relieved this ethanolamine inhibition almost completely

Compound: CCCCCCCCCCCC(=O)NCCO [NAE 12:0, N-lauroylethanolamine, reference compound]
seedling growth on exogenous application ([4]; applied exogenously): inhibits seedling growth

Compound: NC(=O)c1cccc(-c2cccc(OC(=O)NC3CCCCC3)c2)c1 [URB597]
reversal of cardanol-induced exacerbation of tBHP mediated cell death by FAAH inhibitor (rat E18 cortical neurons): completely reversed
